Active and inactive are the calls of the source. No cut-off for these calls is given here.
Key:
[1] = tested on: MGC-803; assay: Antiproliferative activity against human MGC803 cells assessed as inhibition of cell proliferation at 10 uM measured for 12 to 72 hrs by MTT assay relative to control; format: functional
[2] = tested on: MGC-803; assay: Antiproliferative activity against human MGC803 cells assessed as reduction in cell viability incubated for 48 hrs by MTT assay; format: functional, cell-based; conditions: MGC-803, 48 h
[3] = tested on: L02; assay: Cytotoxicity against human HL7702 cells assessed as reduction in cell viability incubated for 48 hrs by MTT assay; format: cell-based; conditions: L02, 48 h
[4] = tested on: Calf thymus DNA; assay: Inhibition of ethidium bromide binding to calf thymus DNA assessed as Stern-Volmer quenching constant by fluorescence spectra analysis; format: nucleic-acid assay; conditions: Bos taurus
[5] = tested on: MGC-803; assay: Induction of DNA damage in human MGC803 cells assessed as increase in gamma-H2AX expression at 2.5 uM after 24 hrs by Western blot analysis; format: functional, cell-based
[6] = tested on: Calf thymus DNA; assay: Binding affinity to calf thymus DNA assessed as hyperchromic effect at 10:1 compound to DNA ratio incubated for 5 mins by UV-Vis spectroscopy; format: nucleic-acid assay; conditions: Bos taurus
[7] = tested on: Quadruplex DNA; assay: Binding affinity to human c-Kit-1 G-quadruplex DNA assessed as Stern-Volmer quenching constant by fluorometric titration assay; format: nucleic-acid assay
[8] = tested on: Quadruplex DNA; assay: Binding affinity to human HTG21 G-quadruplex DNA at 10 uM incubated for 5 mins by CD spectroscopy; format: nucleic-acid assay
[9] = tested on: MGC-803; assay: Cell cycle arrest in human MGC803 cells assessed as accumulation of cells at S phase at 1 uM incubated for 48 hrs by propidium iodide staining based flow cytometry (reference value: 32.97%); format: functional
[10] = tested on: MGC-803; assay: Cell cycle arrest in human MGC803 cells assessed as accumulation of cells at G2/M phase at 0.5 uM incubated for 48 hrs by propidium iodide staining-based flow cytometry (reference value: 13.07%); format: functional
[11] = tested on: MGC-803; assay: Cell cycle arrest in human MGC803 cells assessed as accumulation of cells at G2/M phase at 1 uM incubated for 48 hrs by propidium iodide staining-based flow cytometry (reference value: 13.07%); format: functional
[12] = tested on: MGC-803; assay: Cell cycle arrest in human MGC803 cells assessed as accumulation of cells at G2/M phase at 2.5 uM incubated for 48 hrs by propidium iodide staining-based flow cytometry (reference value: 13.07%); format: functional
[13] = tested on: MGC-803; assay: Cell cycle arrest in human MGC803 cells assessed as accumulation of cells at G1 phase at 0.5 uM incubated for 48 hrs by propidium iodide staining-based flow cytometry (reference value: 53.96%); format: functional
[14] = tested on: MGC-803; assay: Cell cycle arrest in human MGC803 cells assessed as change in cyclin A2 expression at 0.5 to 2.5 uM incubated for 24 hrs by immunoblot analysis; format: functional, cell-based
[15] = tested on: MGC-803; assay: Cell cycle arrest in human MGC803 cells assessed as change in cyclin E2 expression at 0.5 to 2.5 uM incubated for 24 hrs by immunoblot analysis; format: functional, cell-based
[16] = tested on: MGC-803; assay: Cell cycle arrest in human MGC803 cells assessed as increase in p21 expression at 0.5 to 2.5 uM incubated for 24 hrs by Western blot analysis; format: functional, cell-based
[17] = tested on: MGC-803; assay: Induction of apoptosis in human MGC803 cells assessed as viable cells at 0.5 uM incubated for 24 hrs by Annexin V-FITC/propidium iodide staining based flow cytometry (reference value: 96.53+/-2.11%); format: functional; conditions: MGC-803, 24 h, read-out: Activity
[18] = tested on: MGC-803; assay: Induction of apoptosis in human MGC803 cells assessed as early apoptotic cells at 0.5 uM incubated for 24 hrs by Annexin V-FITC/propidium iodide staining based flow cytometry (reference value: 0.97 +/- 0.10 %); format: functional
[19] = tested on: MGC-803; assay: Induction of apoptosis in human MGC803 cells assessed as early apoptotic cells at 2.5 uM incubated for 24 hrs by Annexin V-FITC/propidium iodide staining based flow cytometry (reference value: 0.97 +/- 0.10 %); format: functional
[20] = tested on: MGC-803; assay: Induction of apoptosis in human MGC803 cells assessed as late apoptotic cells at 1 uM incubated for 24 hrs by Annexin V-FITC/propidium iodide staining based flow cytometry (reference value: 0.69 +/- 0.05 %); format: functional
[21] = tested on: MGC-803; assay: Induction of apoptosis in human MGC803 cells assessed as nuclear condensation at 2.5 uM after 24 hrs by Hoechst 33258 staining-based fluorescence microscopic method; format: functional, cell-based
[22] = tested on: MGC-803; assay: Induction of apoptosis in human MGC803 cells assessed as appearance of irregular cell shape at 2.5 uM after 24 hrs by Hoechst 33258 staining-based fluorescence microscopic method; format: functional
[23] = tested on: MGC-803; assay: Induction of apoptosis in human MGC803 cells assessed as increase in Bim levels at 0.5 to 2.5 uM after 24 hrs by Western blot analysis; format: functional, cell-based
[24] = tested on: MGC-803; assay: Induction of apoptosis in human MGC803 cells assessed as decrease in Bcl-2 expression at 0.5 to 2.5 uM after 24 hrs by Western blot analysis; format: functional, cell-based
[25] = tested on: MGC-803; assay: Induction of apoptosis in human MGC803 cells assessed as decrease in Bcl-xL expression at 0.5 to 2.5 uM after 24 hrs by Western blot analysis; format: functional, cell-based
[26] = tested on: MGC-803; assay: Induction of apoptosis in human MGC803 cells assessed as increase in cytochrome-c expression at 0.5 to 2.5 uM after 24 hrs by Western blot analysis; format: functional, cell-based
[27] = tested on: MGC-803; assay: Induction of apoptosis in human MGC803 cells assessed as increase in Apaf-1 expression at 0.5 to 2.5 uM after 24 hrs by Western blot analysis; format: functional, cell-based
[28] = tested on: MGC-803; assay: Induction of mitochondrial membrane depolarization in human MGC803 cells at 0.5 uM incubated for 24 hrs by JC-1 dye-based flow cytometric analysis (Rvb 3.37%); format: functional
[29] = tested on: MGC-803; assay: Induction of mitochondrial membrane depolarization in human MGC803 cells at 1 uM incubated for 24 hrs by JC-1 dye-based flow cytometric analysis (Rvb 3.37%); format: functional
[30] = tested on: MGC-803; assay: Induction of apoptosis in human MGC803 cells assessed as increase in intracellular calcium release incubated for 24 hrs by […] AM dye-based flow cytometric analysis; format: functional, cell-based
[31] = tested on: MGC-803; assay: Antitumor activity against human MGC803 cells xenografted in BALB/C mouse assessed as tumor growth inhibition at 12 mg/kg, ip administered every other day for 2 weeks measured during compound dosing relative to control; format: functional; conditions: MGC-803, ip, 336 h
[32] = tested on: Calf thymus DNA; assay: Binding affinity to calf thymus DNA assessed as blue shift in maximum absorption at 10:1 compound to DNA ratio incubated for 5 mins by UV-Vis spectroscopy; format: nucleic-acid assay; conditions: Bos taurus
[33] = tested on: MGC-803; assay: Cell cycle arrest in human MGC803 cells assessed as accumulation of cells at G1 phase at 1 uM incubated for 48 hrs by propidium iodide staining-based flow cytometry (reference value: 53.96%); format: functional
[34] = tested on: MGC-803; assay: Cell cycle arrest in human MGC803 cells assessed as accumulation of cells at G1 phase at 2.5 uM incubated for 48 hrs by propidium iodide staining-based flow cytometry (reference value: 53.96%); format: functional
[35] = tested on: MGC-803; assay: Induction of apoptosis in human MGC803 cells assessed as cell shrinkage at 0.5 to 2.5 uM after 24 hrs by Hoechst 33258 staining-based fluorescence microscopic method; format: functional
[36] = tested on: MGC-803; assay: Induction of mitochondrial membrane potential loss in human MGC803 cells at 0.5 to 2.5 uM measured after 24 by JC1 staining-based microscopic analysis; format: functional, cell-based

IC50 [2]: 0.97 µM
Kq [4]: 5.92 ×10⁴ No_unit
Activity [6]: Active
Kq [7]: 6.26 ×10⁶ No_unit
Activity [8]: Active
Activity [32]: 10 nm
SMILES: CN(C)CCCNc1c2c(nc3ccc(F)cc13)-c1ccccc1C2
inhibition at 10 µM [1]: 40 to 95%
IC50 [3]: 1.57 µM
Activity [5]: Active
Activity [9]: 52.87%
Activity [10]: 3.76%
Activity [11]: 23.02%
Activity [12]: 31.82%
Activity [13]: 51.5%
Activity [14]: inactive
Activity [15]: inactive
Activity [16]: Active
viability at 0.5 µM [17]: 80.3%
Activity [18]: 13.8%
Activity [19]: 51.2%
Activity [20]: 15%
Activity [21]: Active
Activity [22]: Active
Activity [23]: Active
Activity [24]: Active
Activity [25]: Active
Activity [26]: Active
Activity [27]: Active
Activity [28]: 23.6%
Activity [29]: 89.1%
Activity [30]: Dose-dependent effect
inhibition in vivo at 12 mg/kg [31]: 53.2%
Activity [33]: 24.11%
Activity [34]: 8.74%
Activity [35]: Active
Activity [36]: Active

Source: ChEMBL document CHEMBL4346660, “Cryptolepine and aromathecin based mimics as potent G-quadruplex-binding, DNA-cleavage and anticancer agents: Design, synthesis and DNA targeting-induced apoptosis” (Eur J Med Chem, 2019)
